9 compounds from patent publication US9765092B2, “Tricyclic piperidine compounds” (ACTELION PHARMACEUTICALS LTD, priority 2013, dated 2017) can be followed below.

Sequence of human TPH1 (P17752 whole entry): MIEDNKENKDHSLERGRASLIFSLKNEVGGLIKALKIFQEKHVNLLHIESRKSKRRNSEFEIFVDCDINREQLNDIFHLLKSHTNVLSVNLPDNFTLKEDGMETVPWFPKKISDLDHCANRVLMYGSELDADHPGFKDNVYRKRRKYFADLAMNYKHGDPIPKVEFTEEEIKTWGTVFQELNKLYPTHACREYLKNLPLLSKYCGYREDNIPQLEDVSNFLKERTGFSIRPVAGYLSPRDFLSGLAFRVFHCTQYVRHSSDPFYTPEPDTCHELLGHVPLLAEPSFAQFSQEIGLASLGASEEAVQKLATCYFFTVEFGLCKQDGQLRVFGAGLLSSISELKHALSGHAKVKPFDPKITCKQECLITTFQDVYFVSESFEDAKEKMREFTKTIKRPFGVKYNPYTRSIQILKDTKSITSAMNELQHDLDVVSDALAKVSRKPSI

One assay addresses human TPH1 (Homo sapiens (Human), UniProt P17752). The assay is described as follows: Biochemical in vitro assay using fluorescence readout (TPH1 inhibition). To be noted: full length human TPH1, 40 μM L-tryptophan, 15° C., 60 minutes, fluorescence at 540 nm; mean if determined several times.
For `Cc1nn2c3c(nc2s1)CCN(C(=O)COc1ccc(C(=O)N(C)C)nc1Cl)C3c1ncc(C(=O)N(C)C)s1` (stereo not drawn) [Example 1.37.4, 2-(6-(2-((2-Chloro-6-(dimethylcarbamoyl)pyridin-3-yl)oxy)acetyl)-2-methyl-5,6,7,8-tetrahydro-[1,3,4]thiadiazolo[2′,3′:2,3]imidazo[4,5-c]pyridin-5-yl)-N,N-dimethylthiazole-5-carboxamide], half-maximal inhibition (IC50) was put at 40 nM.

The assay is the same for the next values; noted with them: human TPH1, fluorescence readout.
The compound `Cc1nn2c3c(nc2s1)CCN(C(=O)C(C)(C)Oc1ccc(C(=O)N(C)C)nc1Cl)C3c1ccc(Cl)cc1F` (stereo not drawn) [Example 1.4.58, 6-chloro-5-((1-(5-(4-chloro-2-fluorophenyl)-2-methyl-7,8-dihydro-[1,3,4]thiadiazolo[2′,3′:2,3]imidazo[4,5-c]pyridin-6(5H)-yl)-2-methyl-1-oxopropan-2-yl)oxy)-N,N-dimethylpicolinamide] yielded an IC50 of 55 nM. Still for that read-out and setting: the same measure for `Cc1nn2c3c(nc2s1)CCN(C(=O)COc1ccc[n+]([O-])c1Cl)C3c1ccc(C2CC2)cc1F` (stereo not drawn) [Example 1.6.19, 2-chloro-3-(2-(5-(4-cyclopropyl-2-fluorophenyl)-2-methyl-7,8-dihydro-[1,3,4]thiadiazolo[2′,3′:2,3]imidazo[4,5-c]pyridin-6(5H)-yl)-2-oxoethoxy)pyridine-1-oxide]: 250 nM; for `CNC(=O)c1cc(F)c(C2c3c(nc4sc(C)nn34)CCN2C(=O)COc2ccc(NS(C)(=O)=O)nc2Cl)s1` (stereo not drawn) [Example 1.25.7, 5-(6-(2-((2-chloro-6-(methylsulfonamido)pyridin-3-yl)oxy)acetyl)-2-methyl-5,6,7,8-tetrahydro-[1,3,4]thiadiazolo [2′,3′:2,3]imidazo[4,5-c]pyridin-5-yl)-4-fluoro-N-methylthiophene-2-carboxamide]: 7 nM. Regarding `O=C(COc1ccc(CN2CCOCC2)nc1Cl)N1CCc2nc3sccn3c2C1c1ccc(Cl)cc1F` (stereo not drawn) [Example 6.4.5, 1-(5-(4-chloro-2-fluorophenyl)-7,8-dihydrothiazolo-[2′,3′:2,3]imidazo[4,5-c]pyridin-6(5H)-yl)-2-((2-chloro-6-(morpholinomethyl)pyridin-3-yl)oxy)ethanone], the IC50 is 7 nM. In turn, `Cc1cnc(C2c3c(nc4sc(C)nn34)CCN2C(=O)COc2ccc(NS(C)(=O)=O)cc2Cl)c(F)c1` (stereo not drawn) [Example 1.31.10, N-(3-chloro-4-(2-(5-(3-fluoro-5-methylpyridin-2-yl)-2-methyl-7,8-dihydro-[1,3,4]thiadiazolo[2′,3′:2,3]imidazo[4,5-c]pyridin-6(5H)-yl)-2-oxoethoxy)phenyl)methanesulfonamide] came in with an IC50 of 11 nM.

Turning to `Cc1nn2c3c(nc2s1)CCN(C(=O)COc1ccc(N(C)S(C)(=O)=O)nc1Cl)C3c1ccc(Cl)cc1F` (stereo not drawn) [Example 1.4.48, N-(6-chloro-5-(2-(5-(4-chloro-2-fluorophenyl)-2-methyl-7,8-dihydro-[1,3,4]thiadiazolo[2′,3′:2,3]imidazo[4,5-c]pyridin-6(5H)-yl)-2-oxoethoxy)pyridin-2-yl)-N-methylmethanesulfonamide], the half-inhibitory concentration (IC50) worked out at 10 nM.

Compound `O=C(COc1ccc(Cl)cc1Cl)N1CCc2nc3sccn3c2C1c1nc2ccccc2s1` (stereo not drawn) [Example 6.12.3, 1-(5-(benzo[d]thiazol-2-yl)-7,8-dihydrothiazolo-[2′,3′:2,3]imidazo[4,5-c]pyridin-6(5H)-yl)-2-(2,4-dichlorophenoxy)ethanone] returned an IC50 of 20 nM.

`CCc1nc(NS(C)(=O)=O)ccc1OCC(=O)N1CCc2nc3sc(C)nn3c2[C@@H]1c1ncc(C)cc1F` [Example 1.31.16, (R)-N-(6-ethyl-5-(2-(5-(3-fluoro-5-methylpyridin-2-yl)-2-methyl-7,8-dihydro-[1,3,4]thiadiazolo[2′,3′:2,3]imidazo[4,5-c]pyridin-6(5H)-yl)-2-oxoethoxy)pyridin-2-yl)methanesulfonamide] came in with an IC50 of 18 nM. The IC50 values of the last two compounds are within 1.5-fold of each other.
